Legend:
[1] = Kinetic solubility in PBS pH 7.4; assay type: physicochemical; conditions: aqueous buffer, kinetic from dmso stock
Method: The desired compounds were sequentially diluted in DMSO in a 96-well plate. 1.5 µL of each well were transferred into another 96-well plate and mixed with 148.5 µL of PBS. Plates were shaken for 5 min at 600 rpm at room temperature (r.t.), and the absorbance at 620 nm was measured. Absorbance values were normalized by blank subtraction and plotted using GraphPad Prism 8.4.2 (GraphPad Software, San Diego, CA, USA). […]

[2] = Metabolic stability in mouse liver S9 fraction; assay type: in vitro ADME; conditions: C57BL/6, liver S9 fraction; mouse liver S9, 1 µM
Method: (§1) page 57: 3. Biological evaluation 3.1 In vitro inhibition assays […] MMPs, TACE). […] inhibitor screening kits were purchased from Sigma-Aldrich (Saint Louis, MO). MMPs along with the SensoLyte 520 Generic MMP Activity Kit Fluorimetric were purchased from AnaSpec (Fremont, CA, USA). The assays were performed according to the guidelines of the respective manufacturer. Fluorescence signals were measured using a CLARIOstar plate reader (BMG Labtech, Ortenberg, Germany). 3.2 Kinetic solubility […] well were transferred into another 96-well plate and mixed with 148.5 µL of PBS. Plates were shaken for 5 min at 600 rpm at room temperature (r.t.), and the absorbance at 620 nm was measured. Absorbance values were normalized by blank subtraction and plotted using GraphPad Prism 8.4.2 (GraphPad Software, San Diego, CA, USA). Solubility (S) was […] 3.3 Lipophilicity determination LogD7.4 was analyzed using an HPLC−based method. The UV retention time of reference […] Linear […] Analysis was performed using a Vanquish Flex HPLC system with variable wavelength detector (Thermo Fisher, Dreieich, Germany) with the following conditions: EC150/2 NUCLEODUR C18 Pyramid column, 5 μM (Macherey Nagel, Düren, Germany); eluent A: 50 mM NH4OAc pH 7.4, eluent B: acetonitrile, and flow: 0.6 mL/min. […] 3.4 Metabolic stability in liver S9 fractions For the evaluation of combined phase I and phase II metabolic stability, the compound (1 μM) was incubated with 1 mg/mL pooled mouse liver S9 fraction (C57BL/6, Xenotech, Kansas Cit y, USA) or human liver S9 fraction (Corning, USA), 2 mM NADPH, 1 mM UDPGA, 10 mM MgCl2, 5 mM GSH and 0.1 mM PAPS at 37 °C for 120 min. The metabolic stability of testosterone, verapamil and ketoconazole were determined in parallel to confirm the enzymatic activity of S56 page 58: mouse S9 fractions, for human S9 testosterone, diclofenac and propranolol were used. The incubation was stopped after defined time points by precipitation of aliquots of S9 enzymes […] Samples were stored on ice until the end of the incubation and precipitated protein was removed by centrifugation (15 min, 4 °C, 4,000 g). Concentration of the remaining test compound at the different time points was analyzed by HPLC-MS/MS (TSQ Quantum Access MAX, Thermo Fisher, Dreieich, Germany) and used to determine half -life (t1/2) and intrinsic clearance (Clint). Species profiling was conducted as above using 0.5 mg/mL pooled mouse, rat or minipig liver microsomes (Xenotech, Kansas City, USA) with 2 mM NADPH and 10 mM MgCl2 and testosterone, verapamil and ketoconazole as reference compounds. 3.5 Plasma stability To determine stability in plasma, the compound (1 µM) was incubated with pooled CD -1 mouse/human/Wistar rat or Göttingen minipig plasma (Neo Biotech, Nanterre, France). Samples were taken by mixing aliquots with 4 volumes of acetonitrile containing internal standard (125 nM diphenhydramine). The plasma stability of procain, propantheline and diltiazem were determined in parallel to confirm the enzymatic activity. Samples were stored on ice until the end of the incubation and precipitated protein was removed by centrifugation (15 min, 4 °C, 4,000 g, two centrifugation steps). Concentration of the remaining test compound at the different time points was analyzed by HPLC-MS/MS (TSQ Quantum Access MAX, Thermo Fisher, Dreieich, Germany) and used to determine half-life (t1/2). Table S2: Additional in vitro ADMET data for selected dipeptides. n.d.: not determined. […] Compound Solubility PBS pH 7.4 [µM] Mouse Human Mouse Human […] S57

[3] = Metabolic stability in human liver S9 fraction; assay type: in vitro ADME; conditions: human liver S9, 1 µM
Method: as §1

Plasma stability, human = assay type: in vitro ADME; conditions: read-out: Plasma t1/2 Human
Method: To determine stability in plasma, the compound (1 µM) was incubated with pooled CD -1 […]
mouse/human/Wistar rat or Göttingen minipig plasma (Neo Biotech, Nanterre, France).
Samples were taken by mixing aliquots with 4 volumes of acetonitrile containing internal […]
standard (125 nM diphenhydramine). The plasma stability of procain, propantheline and diltiazem were determined in parallel to confirm the enzymatic activity. Samples were stored […]
on ice until the end of the incubation and precipitated protein was removed by centrifugation […]
(15 min, 4 °C, 4,000 g, two centrifugation steps). Concentration of the remaining test compound at the different time points was analyzed by HPLC-MS/MS (TSQ Quantum Access MAX, […]
Thermo Fisher, Dreieich, Germany) and used to determine half-life (t1/2).
Table S2: Additional in vitro ADMET data for selected dipeptides. n.d.: not determined.
Kinetic Liver S9 Clint [µL/mg/min] Plasma t1/2 [min] LogD7.4 […]
pH 7.4 [µM] Mouse Human Mouse Human

MMP-3 = target: T1, MMP-3 (Homo sapiens, UniProt P08254); test: MMP-3 inhibition (off-target); assay type: biochemical; conditions: read-out: MMP-3 % inhibition at 100 µM
T1 construct: purchased AnaSpec (Fremont, CA, USA)
T1 sequence (P08254 100-477): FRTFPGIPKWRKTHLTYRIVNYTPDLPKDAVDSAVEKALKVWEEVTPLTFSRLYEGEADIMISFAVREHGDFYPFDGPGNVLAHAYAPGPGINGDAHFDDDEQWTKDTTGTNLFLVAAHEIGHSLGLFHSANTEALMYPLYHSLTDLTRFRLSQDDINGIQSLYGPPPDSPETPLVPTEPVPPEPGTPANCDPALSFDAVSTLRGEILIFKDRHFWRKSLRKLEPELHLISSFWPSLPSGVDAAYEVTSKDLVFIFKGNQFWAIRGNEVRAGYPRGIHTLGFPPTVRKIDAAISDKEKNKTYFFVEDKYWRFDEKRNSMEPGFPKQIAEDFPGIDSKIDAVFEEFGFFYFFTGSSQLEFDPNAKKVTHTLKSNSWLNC
Method: 3.1 In vitro inhibition assays
LasB was expressed and purified as described previously.[3] In vitro inhibition assays (LasB, MMPs, TACE). All in vitro inhibition assays were performed as described previously.[10] TACE inhibitor screening kits were purchased from Sigma-Aldrich (Saint Louis, MO). MMPs along with the SensoLyte 520 Generic MMP Activity Kit Fluorimetric were purchased from AnaSpec (Fremont, CA, USA). The assays were performed according to the guidelines of the respective manufacturer. Fluorescence signals were measured using a CLARIOstar plate reader (BMG Labtech, Ortenberg, Germany). […]
3.8 Test against zinc metalloproteases MMP1–3 and TACE (ADAM17), and testing of
We selected a panel of human off -targets, including three human matrix metalloproteases (MMP-1, -2 and -3) and TACE (ADAM-17). These assays were performed as described previously.[3] The TACE inhibitor screening kit was purchased from Sigma -Aldrich (Saint Louis, MO). MMPs along with the SensoLyte 520 Generic MMP Activity Kit Fluorimetric were purchased from AnaSpec (Fremont, CA, USA). The assays were performed according to the guidelines of the respective manufacturer. Fluorescence signals were measured using a CLARIOstar plate reader (BMG Labtech, Ortenberg, Germany). […]
Table S6: Percent (%) inhibition of three MMPs (1 –3) and TACE (ADAM17) in presence of selected LasB inhibitors at 100 µM. Results are means and SD of at least two independent experiments. […]
Compound [% inhibition at [% inhibition at [% inhibition at [% inhibition at 100

Compound	solubility kinetic at 5 min [1] [µM]	microsomal CLint at 1 µM [2] [µL/min/mg]	microsomal CLint at 1 µM [3] [µL/min/mg]	half-life at 1 µM (Plasma stability, human) [h]	inhibition at 100 µM (MMP-3) [%]
CC(=O)c1ccc(NC(=O)[C@@H](NC(=O)[C@@H](CC(C)C)P(=O)(O)O)C(C)C)cc1 [(R)‐30]	> 200	< 5.8	< 5.8	> 2.5	< 10
CC(C)C[C@H](C(=O)N[C@H](C(=O)Nc1ccc(-n2ccnc2)cc1)C(C)C)P(=O)(O)O [(R)‐36]	> 200	< 5.8	< 5.8	> 2.5	< 10
CC(C)CC(C(=O)N[C@H](C(=O)Nc1ccc(Cl)c(Cl)c1)C1CCC1)P(=O)(O)O (stereo partly drawn) [compound 13]	> 200	< 5.8	< 5.8	> 2.5	< 10
CC(C)CC(C(=O)N[C@H](C(=O)Nc1ccc(Cl)c(Cl)c1)C(C)C)P(=O)(O)O (stereo partly drawn) [compound 9]	> 200	< 5.8	< 5.8	> 2.5	< 10
CC(C)CC(C(=O)N[C@H](C(=O)Nc1ccc(Cl)c(Cl)c1)C1CCCCC1)P(=O)(O)O (stereo partly drawn) [compound 14]	> 200	< 5.8	< 5.8	> 2.5	< 10
CC(=O)c1ccc(NC(=O)[C@@H](NC(=O)C(CC(C)C)P(=O)(O)O)C(C)C)cc1 (stereo partly drawn) [compound 30]	> 200	< 5.8	< 5.8	> 2.5	< 10

— article PMC11984924, “Dipeptidic Phosphonates: Potent Inhibitors of Pseudomonas aeruginosa Elastase B Showing Efficacy in a Murine Keratitis Model” (Advanced Science, 2025)
